Measured values reported in patent publication US20190345138A1, “HETEROCYCLIC AMIDES AS KINASE INHIBITORS” (GlaxoSmithKline Intellectual Property Development Limited, priority 2016, published 2019).
Several values for one entry are separate records, joined by “and”; a condition that tells them apart may be missing. Equal entries are not always repeated.

Legend:
RIP1 kinase = biological target: T1, RIP1 kinase (Homo sapiens, UniProt Q13546); assay: fluorescent polarization based binding assay; settings: mean of a minimum of 2 experiments
T1 sequence (Q13546 1-375 limits assumed): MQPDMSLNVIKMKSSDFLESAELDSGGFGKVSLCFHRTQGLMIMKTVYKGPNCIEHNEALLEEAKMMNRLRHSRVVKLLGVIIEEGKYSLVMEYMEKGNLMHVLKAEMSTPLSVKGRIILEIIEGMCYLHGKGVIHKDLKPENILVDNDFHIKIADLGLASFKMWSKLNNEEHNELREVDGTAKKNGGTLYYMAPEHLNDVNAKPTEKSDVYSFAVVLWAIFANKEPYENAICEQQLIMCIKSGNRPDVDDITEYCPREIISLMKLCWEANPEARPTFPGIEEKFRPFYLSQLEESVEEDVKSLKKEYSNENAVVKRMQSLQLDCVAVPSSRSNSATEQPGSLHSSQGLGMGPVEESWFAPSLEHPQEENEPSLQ
Text: A fluorescent polarization based binding assay was used to assess the activity of the compounds of this invention, the details of which are disclosed in International Patent Appln. No. PCT/IB2014/059004, now, International Patent Appln. Pub.

[1] = test system: human monocytic leukemia U937 cells; assay: necroptosis assay in U937 cells; assay type: cell-based; settings: Homo sapiens, U-937, U937 cells; viability by cellular ATP (Cell Titer-Glo); read-out: pIC50, inhibited necrosis in U937 cells (converted)
Protocol: The efficacy of RIP1 inhibitors can be tested […] in vitro using a human monocytic leukemia U937 or mouse L929 fibrosarcoma cells in a necroptosis assay. As determined using the method described in S. He et al., Cell, 137(6):1100-1111 (2009) and International Patent Appln. No. PCT/IB2014/059004, now, International Patent Appln. Pub.
Viability was measured by quantitating cellular levels of ATP using the Cell Titer-Glo kit. All data are means±standard deviation of the mean.

IC50 (RIP1 kinase)	Compound	IC50 [1] [nM]
1 to 31.6 nM	N#Cc1cccc([C@@H]2CC=NN2C(=O)C2CCN(c3cc(C(N)=O)ncn3)CC2)c1 [Example 70, (S)-6-(4-(5-(3-cyanophenyl)-4,5-dihydro-1H-pyrazole-1-carbonyl)piperidin-1-yl)pyrimidine-4-carboxamide]	1 to 100
1 to 31.6 nM	N#Cc1cccc([C@@H]2CC=NN2C(=O)C2CCN(c3cc(C#N)ncn3)CC2)c1 [Example 68, (S)-6-(4-(5-(3-cyanophenyl)-4,5-dihydro-1H-pyrazole-1-carbonyl)piperidin-1-yl)pyrimidine-4-carbonitrile]	1 to 100
1 to 31.6 nM	N#Cc1cccc([C@@H]2CC=NN2C(=O)C2CCN(c3ccnc(C#N)n3)CC2)c1 [Example 74, (S)-4-(4-(5-(3-cyanophenyl)-4,5-dihydro-1H-pyrazole-1-carbonyl)piperidin-1-yl)pyrimidine-2-carbonitrile]	1 to 100
1 to 31.6 nM and 1 to 10 nM	CSc1nccc(N2CCC(C(=O)N3N=CC[C@H]3c3ccccc3)CC2)n1 [Example 45, (S)-(1-(2-(methylthio)pyrimidin-4-yl)piperidin-4-yl)(5-phenyl-4,5-dihydro-1H-pyrazol-1-yl)methanone]	1 to 100
1 to 31.6 nM and 1 to 10 nM	N#Cc1nccnc1N1CCC(C(=O)N2N=CC[C@H]2c2ccccc2)CC1 [Example 44, (S)-3-(4-(5-phenyl-4,5-dihydro-1H-pyrazole-1-carbonyl)piperidin-1-yl)pyrazine-2-carbonitrile]	1 to 100
1 to 31.6 nM and 1 to 10 nM	O=C(C1CCN(c2ccn3nccc3n2)CC1)N1N=CC[C@H]1c1ccccc1 [Example 21, (S)-(5-phenyl-4,5-dihydro-1H-pyrazol-1-yl)(1-(pyrazolo[1,5-a]pyrimidin-5-yl)piperidin-4-yl)methanone]	1 to 100
1 to 31.6 nM	N#Cc1nccc(N2CCC(C(=O)N3N=CC[C@H]3c3cncc(F)c3)CC2)n1 [Example 115, (S)-4-(4-(5-(5-fluoropyridin-3-yl)-4,5-dihydro-1H-pyrazole-1-carbonyl)piperidin-1-yl)pyrimidine-2-carbonitrile]	1 to 100
1 to 31.6 nM and 1 to 10 nM	N#Cc1csc(N2CCC(C(=O)N3N=CC[C@H]3c3ccccc3)CC2)n1 [Example 53, (S)-2-(4-(5-phenyl-4,5-dihydro-1H-pyrazole-1-carbonyl)piperidin-1-yl)thiazole-4-carbonitrile]	1 to 100
1 to 31.6 nM and 1 to 10 nM	CNc1nccc(N2CCC(C(=O)N3N=CC[C@H]3c3ccccc3)CC2)n1 [Example 15, (S)-(1-(2-(methylamino)pyrimidin-4-yl)piperidin-4-yl)(5-phenyl-4,5-dihydro-1H-pyrazol-1-yl)methanone]	1 to 100
1 to 31.6 nM	N#Cc1ccc(N2CCC(C(=O)N3N=CC[C@H]3c3ccccc3)CC2)nn1 [Example 42, (S)-6-(4-(5-phenyl-4,5-dihydro-1H-pyrazole-1-carbonyl)piperidin-1-yl)pyridazine-3-carbonitrile]	1 to 100
1 to 31.6 nM	CNc1ccnc(N2CCC(C(=O)N3N=CC[C@H]3c3ccccc3)CC2)n1 [Example 16, (S)-(1-(4-(methylamino)pyrimidin-2-yl)piperidin-4-yl)(5-phenyl-4,5-dihydro-1H-pyrazol-1-yl)methanone]	1 to 100
1 to 31.6 nM	Cc1nc(N)cc(N2CCC(C(=O)N3N=CC[C@H]3c3ccccc3)CC2)n1 [Example 33, (S)-(1-(6-amino-2-methylpyrimidin-4-yl)piperidin-4-yl)(5-phenyl-4,5-dihydro-1H-pyrazol-1-yl)methanone]	1 to 100

More lines, now with the values behind:

Compound	IC50 (RIP1 kinase)	IC50 [1] [nM]
COc1cc(N2CCC(C(=O)N3N=CC[C@H]3c3cc(F)cc(F)c3)CC2)ncn1 [Example 91, (S)-(5-(3,5-difluorophenyl)-4,5-dihydro-1H-pyrazol-1-yl)(1-(6-methoxypyrimidin-4-yl)piperidin-4-yl)methanone]	1 to 31.6 nM and 1 to 10 nM	1 to 100
CSc1nc(N)cc(N2CCC(C(=O)N3N=CC[C@H]3c3ccccc3)CC2)n1 [Example 60, (S)-(1-(6-amino-2-(methylthio)pyrimidin-4-yl)piperidin-4-yl)(5-phenyl-4,5-dihydro-1H-pyrazol-1-yl)methanone]	1 to 31.6 nM	1 to 100
Nc1ncnc(N2CCC(C(=O)N3N=CC[C@H]3c3ccccc3)CC2)c1F [Example 61, (S)-(1-(6-amino-5-fluoropyrimidin-4-yl)piperidin-4-yl)(5-phenyl-4,5-dihydro-1H-pyrazol-1-yl)methanone]	1 to 31.6 nM and 1 to 10 nM	1 to 100
CNC(=O)c1csc(N2CCC(C(=O)N3N=CC[C@H]3c3ccccc3)CC2)n1 [Example 54, (S)-N-methyl-2-(4-(5-phenyl-4,5-dihydro-1H-pyrazole-1-carbonyl)piperidin-1-yl)thiazole-4-carboxamide]	1 to 31.6 nM	1 to 100
O=C(C1CCN(c2ncc(F)c(OCCN3CCOCC3)n2)CC1)N1N=CC[C@H]1c1ccccc1 [Example 127, (S)-(1-(5-fluoro-4-(2-morpholinoethoxy)pyrimidin-2-yl)piperidin-4-yl)(5-phenyl-4,5-dihydro-1H-pyrazol-1-yl)methanone]	1 to 31.6 nM and 1 to 10 nM	1 to 100
CNc1nccc(N2CCC(C(=O)N3N=CC[C@H]3c3cc(F)cc(F)c3)CC2)n1 [Example 100, (S)-(5-(3,5-difluorophenyl)-4,5-dihydro-1H-pyrazol-1-yl)(1-(2-(methylamino)pyrimidin-4-yl)piperidin-4-yl)methanone]	1 to 31.6 nM	1 to 100
CSc1cc(N2CCC(C(=O)N3N=CC[C@H]3c3ccccc3)CC2)ncn1 [Example 59, (S)-(1-(6-(methylthio)pyrimidin-4-yl)piperidin-4-yl)(5-phenyl-4,5-dihydro-1H-pyrazol-1-yl)methanone]	1 to 31.6 nM and 1 to 10 nM	1 to 100
COc1cc(N2CCC(C(=O)N3N=CC[C@H]3c3cc(F)ccc3F)CC2)ncn1 [Example 105, (S)-(5-(2,5-difluorophenyl)-4,5-dihydro-1H-pyrazol-1-yl)(1-(6-methoxypyrimidin-4-yl)piperidin-4-yl)methanone]	1 to 31.6 nM and 1 to 10 nM	1 to 100
NC(=O)c1cnc(N2CCC(C(=O)N3N=CC[C@H]3c3cc(F)ccc3F)CC2)nc1 [Example 123, (S)-2-(4-(5-(2,5-difluorophenyl)-4,5-dihydro-1H-pyrazole-1-carbonyl)piperidin-1-yl)pyrimidine-5-carboxamide]	1 to 31.6 nM	1 to 100
O=C(C1CCN(c2ncc(-c3ccccc3)o2)CC1)N1N=CC[C@H]1c1ccccc1 [Example 67, (S)-(5-phenyl-4,5-dihydro-1H-pyrazol-1-yl)(1-(5-phenyloxazol-2-yl)piperidin-4-yl)methanone]	1 to 31.6 nM	1 to 100
O=C(C1CCN(c2ncc3[nH]cnc3n2)CC1)N1N=CC[C@H]1c1ccccc1 [Example 9, (S)-(1-(7H-purin-2-yl)piperidin-4-yl)(5-phenyl-4,5-dihydro-1H-pyrazol-1-yl)methanone]	1 to 31.6 nM	1 to 100
COc1nc(N)cc(N2CCC(C(=O)N3N=CC[C@H]3c3ccccc3)CC2)n1 [Example 35, (S)-(1-(6-amino-2-methoxypyrimidin-4-yl)piperidin-4-yl)(5-phenyl-4,5-dihydro-1H-pyrazol-1-yl)methanone]	1 to 31.6 nM	1 to 100
C#Cc1cc(N2CCC(C(=O)N3N=CC[C@H]3c3cc(F)cc(F)c3)CC2)ncn1 [Example 157, (S)-(5-(3,5-difluorophenyl)-4,5-dihydro-1H-pyrazol-1-yl)(1-(6-ethynylpyrimidin-4-yl)piperidin-4-yl)methanone]	1 to 31.6 nM and 1 to 10 nM	1 to 100
O=C1Cc2cnc(N3CCC(C(=O)N4N=CC[C@H]4c4cc(F)cc(F)c4)CC3)nc2N1 [Example 80, (S)-2-(4-(5-(3,5-difluorophenyl)-4,5-dihydro-1H-pyrazole-1-carbonyl)piperidin-1-yl)-5H-pyrrolo[2,3-d]pyrimidin-6(7H)-one]	1 to 31.6 nM and 1 to 10 nM	1 to 100
NC(=O)c1coc(N2CCC(C(=O)N3N=CC[C@H]3c3cc(F)cc(F)c3)CC2)n1 [Example 134, (S)-2-(4-(5-(3,5-difluorophenyl)-4,5-dihydro-1H-pyrazole-1-carbonyl)piperidin-1-yl)oxazole-4-carboxamide]	1 to 31.6 nM	1 to 100
CCN(CC)C(=O)c1ccnc(N2CCC(C(=O)N3N=CC[C@H]3c3ccccc3)CC2)n1 [Example 142, (S)-N,N-diethyl-2-(4-(5-phenyl-4,5-dihydro-1H-pyrazole-1-carbonyl)piperidin-1-yl)pyrimidine-4-carboxamide]	1 to 31.6 nM and 1 to 10 nM	1 to 100
CC(=O)Nc1cncc(N2CCC(C(=O)N3N=CC[C@H]3c3ccccc3)CC2)n1 [Example 64, (S)-N-(6-(4-(5-phenyl-4,5-dihydro-1H-pyrazole-1-carbonyl)piperidin-1-yl)pyrazin-2-yl)acetamide]	1 to 31.6 nM and 1 to 10 nM	1 to 100
